# Measurements: ChEMBL document CHEMBL1201862, “PubChem BioAssay data set” (2004)
# Active and inactive are the calls of the source.
# What was measured:
# Beta-galactosidase = Beta-galactosidase (Escherichia coli, UniProt Q8VNN2); test: detection-enzyme interference by beta-gal modulators – biochemical, E. coli enzyme, set 3, artefact control for CCR6 antagonist project, dose response (AID 504712); format: functional
# [1] = viability of PTEN-deleted HCT116 cells – cell-based, HCT116 PTEN knockout, dose response (AID 1047); format: functional;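 note: HCT116 colon tumor cells with PTEN knocked out; cells exposed to compound for 60 hours before readout; potency for loss of cell viability measured by luminescence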
# [2] = viability of HCT116 lacking mutant beta-catenin – cell-based, human colon tumor, dose response (AID 1045); format: functional;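 note: HCT116 colon tumor cells with beta catenin knocked out; cells exposed to compound for 60 hours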
# Cytochrome P450 3A4 = Cytochrome P450 3A4 (Homo sapiens, UniProt P08684); settings: Potency;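 note: confirmatory qHTS run detecting inhibitors and substrates of CYP3A4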
# [3] = A cytotoxicity screen of small molecule inhibitors of the PhoP region in Salmonella typhi identified in the primary screen. [Related pubchem assays: 1850, 1864, 1985 ]; format: functional
# Bcl-2-like protein 10 = biological target: T1, Bcl-2-like protein 10 (Homo sapiens, UniProt Q9HD36); test: Bcl-B/TR3 peptide binding disruption – biochemical, fluorescence polarization, FITC-TR3 peptide, selectivity assay for Bfl-1 inhibitor project, primary screen (AID 748);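 note: fluorescence polarization from a fluorescein-labelled TR3 peptide binding purified Bcl-B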
# T1 sequence (Q9HD36 whole entry): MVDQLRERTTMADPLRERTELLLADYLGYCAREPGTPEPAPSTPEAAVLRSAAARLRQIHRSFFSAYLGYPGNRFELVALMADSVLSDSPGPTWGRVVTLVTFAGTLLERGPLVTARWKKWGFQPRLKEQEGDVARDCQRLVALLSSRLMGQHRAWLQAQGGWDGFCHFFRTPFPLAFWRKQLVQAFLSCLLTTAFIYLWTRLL
# [4] = biological target: DNA dC->dU-editing enzyme APOBEC-3G (Homo sapiens, UniProt Q9HC16); test: Dose Response confirmation of small molecule APOBEC3G DNA Deaminase Inhibitors via a fluorescence-based single-stranded DNA deaminase assay. [Related pubchem assays (depositor defined):AID493012, AID493028]; format: functional
# [5] = biological target: DNA dC->dU-editing enzyme APOBEC-3A (Homo sapiens, UniProt P31941); test: A3A deaminase inhibition for selectivity – biochemical, dose response (AID 504722); format: functional
# Nonstructural protein 1 = Nonstructural protein 1 (Influenza A virus, UniProt Q194T2); format: functional, Influenza A virus (A/California/07/2009(H1N1))
# [6] = biological target: T2, Acyl-homoserine lactone acylase PvdQ (Pseudomonas aeruginosa (strain LESB58), UniProt Q9I194); test: PvdQ acylase enzyme activity blockers – biochemical, fluorescence, plate reader and imaging, cherry-picks, dose response (AID 493231)
# T2 sequence (Q9I194 whole entry): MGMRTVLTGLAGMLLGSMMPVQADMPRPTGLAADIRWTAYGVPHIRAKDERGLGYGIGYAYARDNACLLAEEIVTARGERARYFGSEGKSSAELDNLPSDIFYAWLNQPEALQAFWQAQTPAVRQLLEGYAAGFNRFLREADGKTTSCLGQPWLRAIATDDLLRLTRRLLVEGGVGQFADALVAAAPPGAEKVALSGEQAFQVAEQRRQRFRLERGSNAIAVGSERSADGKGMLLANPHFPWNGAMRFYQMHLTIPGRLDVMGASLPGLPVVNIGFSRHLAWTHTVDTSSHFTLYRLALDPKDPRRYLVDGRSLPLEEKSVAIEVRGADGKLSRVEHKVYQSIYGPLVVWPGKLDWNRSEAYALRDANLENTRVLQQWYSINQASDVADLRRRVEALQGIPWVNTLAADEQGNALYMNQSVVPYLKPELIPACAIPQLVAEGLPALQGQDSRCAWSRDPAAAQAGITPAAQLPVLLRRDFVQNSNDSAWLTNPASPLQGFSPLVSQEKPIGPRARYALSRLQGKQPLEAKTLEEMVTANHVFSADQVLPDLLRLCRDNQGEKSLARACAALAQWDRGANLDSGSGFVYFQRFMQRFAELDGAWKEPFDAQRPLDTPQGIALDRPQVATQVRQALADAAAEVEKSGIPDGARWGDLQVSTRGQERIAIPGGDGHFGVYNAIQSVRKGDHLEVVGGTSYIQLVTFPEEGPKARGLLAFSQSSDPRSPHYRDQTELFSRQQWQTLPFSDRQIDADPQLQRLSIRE
# [7] = biological target: T3, Heat shock factor protein 1 (Mus musculus, UniProt P38532); test: decrease of HSF1-responsive luciferase luminescence – cell-based, NIH3T3, dose retest, confirmation (AID 2382); format: functional;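 note: NIH3T3 fibroblasts with HSF1-driven luciferase reporter stressed by proteasome inhibitor MG132; luminescence from HSF1-driven luciferase expression after 8 hours of MG132 stress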
# T3 sequence (P38532 whole entry): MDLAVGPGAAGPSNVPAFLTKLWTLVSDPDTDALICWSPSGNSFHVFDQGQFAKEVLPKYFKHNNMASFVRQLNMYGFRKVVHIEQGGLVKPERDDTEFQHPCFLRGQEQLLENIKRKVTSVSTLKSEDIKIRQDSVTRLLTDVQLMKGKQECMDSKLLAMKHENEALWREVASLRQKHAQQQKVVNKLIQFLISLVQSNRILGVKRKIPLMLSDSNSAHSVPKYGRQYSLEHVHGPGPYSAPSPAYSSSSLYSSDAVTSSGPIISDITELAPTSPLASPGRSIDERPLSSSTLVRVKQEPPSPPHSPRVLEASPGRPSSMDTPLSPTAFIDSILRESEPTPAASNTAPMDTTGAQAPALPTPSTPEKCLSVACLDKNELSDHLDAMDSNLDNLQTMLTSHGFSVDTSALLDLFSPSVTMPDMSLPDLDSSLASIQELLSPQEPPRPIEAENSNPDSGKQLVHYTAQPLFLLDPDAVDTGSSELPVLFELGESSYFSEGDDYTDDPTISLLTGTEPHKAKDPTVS
# SUMO-activating enzyme [8] = biological target: T4, SUMO-activating enzyme (Homo sapiens, UniProt Q9UBT2); test: blockers of UBC9-mediated SUMO conjugation – biochemical, AlphaScreen, SUMOylation inhibitor project, confirmation (AID 2018); format: functional
# SUMO-activating enzyme [9] = biological target: T4, SUMO-activating enzyme; test: blockers of SAE1/SAE2–UBC9 SUMO transfer – biochemical, HTRF, uHTS, primary screen (AID 2006); format: protein-complex assay
# Cytochrome P450 2C9 = Cytochrome P450 2C9 (Homo sapiens, UniProt P11712)
# [10] = biological target: T5, Voltage-gated N-type calcium channel alpha-1B subunit/Amyloid beta A4 precursor protein-binding family A member 1 (Homo sapiens, UniProt Q00975+Q02410); format: protein assay
# [11] = biological target: T5, Voltage-gated N-type calcium channel alpha-1B subunit/Amyloid beta A4 precursor protein-binding family A member 1; format: protein assay; remark: listed apart in the source
# Estrogen receptor = biological target: T6, Estrogen receptor (Homo sapiens, UniProt P03372);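 note: potency for inhibiting coactivator peptide recruitment to the receptor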
# T6 sequence (P03372 whole entry): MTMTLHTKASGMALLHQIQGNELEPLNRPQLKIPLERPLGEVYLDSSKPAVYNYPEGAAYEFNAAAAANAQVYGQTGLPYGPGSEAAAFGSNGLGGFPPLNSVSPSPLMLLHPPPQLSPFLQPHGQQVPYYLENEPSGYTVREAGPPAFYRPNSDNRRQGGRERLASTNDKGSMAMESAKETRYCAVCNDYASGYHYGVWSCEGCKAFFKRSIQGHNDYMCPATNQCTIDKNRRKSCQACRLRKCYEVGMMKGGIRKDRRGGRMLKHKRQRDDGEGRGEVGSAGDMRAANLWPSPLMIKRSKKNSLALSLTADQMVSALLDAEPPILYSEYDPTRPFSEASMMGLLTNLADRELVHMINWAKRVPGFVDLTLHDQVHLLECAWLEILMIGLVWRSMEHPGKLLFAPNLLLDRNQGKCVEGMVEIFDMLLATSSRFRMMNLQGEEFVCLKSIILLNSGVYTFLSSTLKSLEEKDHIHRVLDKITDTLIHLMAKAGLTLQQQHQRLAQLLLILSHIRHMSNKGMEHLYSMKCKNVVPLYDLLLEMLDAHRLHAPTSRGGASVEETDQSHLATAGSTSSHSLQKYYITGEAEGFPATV
# [12] = biological target: Induced myeloid leukemia cell differentiation protein Mcl-1 (Homo sapiens, UniProt Q07820); format: functional
# [13] = Trypanosoma cruzi growth suppression in host cells – NIH3T3 host cells, beta-gal luminescence, confirmation (AID 2044); format: functional, cell-based;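 note: intracellular parasites grown in NIH/3T3 mouse fibroblasts as host cells; luminescent beta-galactosidase reporter signal from transgenic T. cruzi replicating inside host cells; inhibitors lower the luminescence signal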
# [14] = NIH3T3 cell viability loss – ATP luminescence, mouse fibroblasts, counter-screen, dose response (AID 2010); format: functional, cell-based;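 note: cells exposed to compound for about 90 hours before reading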
# [15] = HEK-293T cell viability reduction – luminescence, B-cell screen hits, cytotoxicity control for BCR NF-kB inhibitor project, dose response (AID 489021); format: functional, cell-based;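 note: HEK-293T cells carrying an NF-kB luciferase reporter; cells exposed to compound for about 14 hours before viability readout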
# HEK293 = test: EBV LMP1 TES2 canonical NF-kB signalling blockers – cell-based, HEK293, luciferase, cherry-pick, dose response (AID 588343); format: functional; settings: Homo sapiens
# [16] = biological target: Heat shock protein HSP 90-alpha (Homo sapiens, UniProt P07900); format: functional, organism-based
# [17] = biological target: Glucose-6-phosphate 1-dehydrogenase (Homo sapiens, UniProt P11413); test: inhibition of Homo sapiens G6PD, dose series – biochemical, fluorescence, selectivity assay for P. falciparum G6PD inhibitor project, dose response (AID 504792); format: functional
# [18] = biological target: Glyceraldehyde-3-phosphate dehydrogenase (Homo sapiens, UniProt P04406)
# Genome polyprotein = Genome polyprotein (dengue virus type 2, UniProt P29990); test: flavivirus cap methylation enzyme inhibition – biochemical, confirmation dose response, primary screen (AID 588689); format: functional
# [19] = biological target: FAD-linked sulfhydryl oxidase ALR (Homo sapiens, UniProt P55789); test: ALR-catalysed DTT oxidation blockers – biochemical, H2O2 detection, luminescence, cherry-pick, dose response (AID 493248)
# DNA dC->dU-editing enzyme APOBEC-3G, sequence (Q9HC16 whole entry): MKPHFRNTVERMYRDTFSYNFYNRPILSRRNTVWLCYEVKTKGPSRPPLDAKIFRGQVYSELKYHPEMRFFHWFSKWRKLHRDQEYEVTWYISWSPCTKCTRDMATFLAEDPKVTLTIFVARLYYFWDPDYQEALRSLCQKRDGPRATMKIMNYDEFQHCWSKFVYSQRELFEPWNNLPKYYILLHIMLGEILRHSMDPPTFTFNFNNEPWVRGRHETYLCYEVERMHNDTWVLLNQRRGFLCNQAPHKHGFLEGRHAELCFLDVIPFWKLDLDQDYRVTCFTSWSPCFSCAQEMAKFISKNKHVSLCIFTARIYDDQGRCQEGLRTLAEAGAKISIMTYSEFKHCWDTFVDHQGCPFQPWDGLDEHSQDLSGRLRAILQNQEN
# T4 sequence (Q9UBE0 whole entry): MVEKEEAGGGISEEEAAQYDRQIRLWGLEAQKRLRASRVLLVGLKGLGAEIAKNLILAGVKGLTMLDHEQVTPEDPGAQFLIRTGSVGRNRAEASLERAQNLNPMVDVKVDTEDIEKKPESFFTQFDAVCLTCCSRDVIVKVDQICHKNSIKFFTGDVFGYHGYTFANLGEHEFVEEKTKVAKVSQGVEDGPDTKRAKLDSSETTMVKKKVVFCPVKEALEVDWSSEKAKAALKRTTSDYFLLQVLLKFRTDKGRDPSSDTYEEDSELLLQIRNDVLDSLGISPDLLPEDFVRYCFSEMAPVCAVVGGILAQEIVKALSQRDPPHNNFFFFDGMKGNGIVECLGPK
# T4 sequence (Q9UBT2 whole entry): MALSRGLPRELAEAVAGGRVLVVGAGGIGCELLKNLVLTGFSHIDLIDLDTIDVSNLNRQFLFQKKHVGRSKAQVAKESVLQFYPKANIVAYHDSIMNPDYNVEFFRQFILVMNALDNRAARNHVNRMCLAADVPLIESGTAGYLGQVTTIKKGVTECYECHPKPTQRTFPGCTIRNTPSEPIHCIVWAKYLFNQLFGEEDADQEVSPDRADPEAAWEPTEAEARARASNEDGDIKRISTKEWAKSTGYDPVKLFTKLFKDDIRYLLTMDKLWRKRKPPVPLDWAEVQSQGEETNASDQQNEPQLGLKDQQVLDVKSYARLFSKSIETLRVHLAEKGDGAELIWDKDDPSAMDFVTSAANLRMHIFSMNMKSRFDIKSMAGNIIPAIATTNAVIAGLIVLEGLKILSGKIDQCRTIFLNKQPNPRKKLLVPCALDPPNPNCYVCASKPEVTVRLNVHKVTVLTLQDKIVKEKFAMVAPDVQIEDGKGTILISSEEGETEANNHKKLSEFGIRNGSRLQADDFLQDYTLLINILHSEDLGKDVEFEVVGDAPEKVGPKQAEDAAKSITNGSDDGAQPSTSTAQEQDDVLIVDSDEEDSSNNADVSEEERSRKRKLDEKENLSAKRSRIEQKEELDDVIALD
# T5 sequence (Q00975 whole entry): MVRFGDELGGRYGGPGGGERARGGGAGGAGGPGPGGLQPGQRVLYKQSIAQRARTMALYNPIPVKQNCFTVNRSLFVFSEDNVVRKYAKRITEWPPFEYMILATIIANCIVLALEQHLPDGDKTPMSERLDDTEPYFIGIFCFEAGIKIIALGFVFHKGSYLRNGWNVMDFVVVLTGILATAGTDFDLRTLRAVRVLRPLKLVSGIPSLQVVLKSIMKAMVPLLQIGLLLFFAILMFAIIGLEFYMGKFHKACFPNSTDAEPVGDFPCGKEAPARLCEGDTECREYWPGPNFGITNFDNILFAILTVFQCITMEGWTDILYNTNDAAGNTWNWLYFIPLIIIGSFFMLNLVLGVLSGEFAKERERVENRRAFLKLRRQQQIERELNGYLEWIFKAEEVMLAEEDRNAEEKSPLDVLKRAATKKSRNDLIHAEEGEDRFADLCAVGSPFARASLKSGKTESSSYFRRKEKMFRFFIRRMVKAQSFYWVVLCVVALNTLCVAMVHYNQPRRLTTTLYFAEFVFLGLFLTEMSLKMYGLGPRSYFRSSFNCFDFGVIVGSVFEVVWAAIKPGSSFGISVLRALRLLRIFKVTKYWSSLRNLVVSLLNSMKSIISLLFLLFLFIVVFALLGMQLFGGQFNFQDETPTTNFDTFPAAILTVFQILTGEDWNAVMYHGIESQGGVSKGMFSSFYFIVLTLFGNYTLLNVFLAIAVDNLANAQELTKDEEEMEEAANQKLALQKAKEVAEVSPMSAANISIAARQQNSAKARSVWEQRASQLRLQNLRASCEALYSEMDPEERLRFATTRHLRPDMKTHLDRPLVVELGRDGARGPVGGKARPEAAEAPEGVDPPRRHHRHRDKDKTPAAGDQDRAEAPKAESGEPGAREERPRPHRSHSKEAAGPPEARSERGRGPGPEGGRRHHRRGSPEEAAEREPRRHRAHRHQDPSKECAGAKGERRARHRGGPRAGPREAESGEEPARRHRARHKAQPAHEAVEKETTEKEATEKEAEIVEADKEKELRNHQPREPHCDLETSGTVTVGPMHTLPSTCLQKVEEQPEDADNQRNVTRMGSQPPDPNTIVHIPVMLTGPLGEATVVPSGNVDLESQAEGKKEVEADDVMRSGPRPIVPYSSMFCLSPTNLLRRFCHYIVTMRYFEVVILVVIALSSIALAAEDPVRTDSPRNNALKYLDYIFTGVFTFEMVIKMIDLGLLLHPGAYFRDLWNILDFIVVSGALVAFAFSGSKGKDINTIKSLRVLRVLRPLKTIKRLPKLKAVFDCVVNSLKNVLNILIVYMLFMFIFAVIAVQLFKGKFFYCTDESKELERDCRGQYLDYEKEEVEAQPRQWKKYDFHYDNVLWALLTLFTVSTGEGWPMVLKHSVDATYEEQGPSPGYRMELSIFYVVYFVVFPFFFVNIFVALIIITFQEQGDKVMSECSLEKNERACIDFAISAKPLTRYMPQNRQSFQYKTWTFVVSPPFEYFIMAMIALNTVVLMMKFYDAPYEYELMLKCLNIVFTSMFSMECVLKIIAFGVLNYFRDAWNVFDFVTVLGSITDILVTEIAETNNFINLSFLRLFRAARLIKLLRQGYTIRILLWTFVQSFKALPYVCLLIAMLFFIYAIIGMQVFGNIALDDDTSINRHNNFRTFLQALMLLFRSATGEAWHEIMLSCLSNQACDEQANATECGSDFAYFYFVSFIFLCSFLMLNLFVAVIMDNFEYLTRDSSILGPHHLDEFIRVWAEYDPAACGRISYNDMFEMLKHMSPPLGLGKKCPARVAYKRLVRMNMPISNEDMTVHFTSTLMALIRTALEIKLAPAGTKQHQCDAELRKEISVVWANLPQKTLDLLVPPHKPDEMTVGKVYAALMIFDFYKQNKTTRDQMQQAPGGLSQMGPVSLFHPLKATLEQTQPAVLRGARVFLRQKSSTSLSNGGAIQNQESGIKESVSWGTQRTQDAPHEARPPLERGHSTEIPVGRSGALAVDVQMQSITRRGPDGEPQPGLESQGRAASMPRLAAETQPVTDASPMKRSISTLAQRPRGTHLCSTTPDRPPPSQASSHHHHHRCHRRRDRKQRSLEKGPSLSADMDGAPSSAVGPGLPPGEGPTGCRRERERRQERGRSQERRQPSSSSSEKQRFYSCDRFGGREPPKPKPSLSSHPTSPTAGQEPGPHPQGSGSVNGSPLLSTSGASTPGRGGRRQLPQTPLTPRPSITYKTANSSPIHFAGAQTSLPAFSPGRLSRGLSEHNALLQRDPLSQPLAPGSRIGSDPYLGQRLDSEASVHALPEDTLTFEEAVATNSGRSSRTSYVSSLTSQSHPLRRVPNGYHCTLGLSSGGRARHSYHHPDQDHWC
# T5 sequence (Q02410 whole entry): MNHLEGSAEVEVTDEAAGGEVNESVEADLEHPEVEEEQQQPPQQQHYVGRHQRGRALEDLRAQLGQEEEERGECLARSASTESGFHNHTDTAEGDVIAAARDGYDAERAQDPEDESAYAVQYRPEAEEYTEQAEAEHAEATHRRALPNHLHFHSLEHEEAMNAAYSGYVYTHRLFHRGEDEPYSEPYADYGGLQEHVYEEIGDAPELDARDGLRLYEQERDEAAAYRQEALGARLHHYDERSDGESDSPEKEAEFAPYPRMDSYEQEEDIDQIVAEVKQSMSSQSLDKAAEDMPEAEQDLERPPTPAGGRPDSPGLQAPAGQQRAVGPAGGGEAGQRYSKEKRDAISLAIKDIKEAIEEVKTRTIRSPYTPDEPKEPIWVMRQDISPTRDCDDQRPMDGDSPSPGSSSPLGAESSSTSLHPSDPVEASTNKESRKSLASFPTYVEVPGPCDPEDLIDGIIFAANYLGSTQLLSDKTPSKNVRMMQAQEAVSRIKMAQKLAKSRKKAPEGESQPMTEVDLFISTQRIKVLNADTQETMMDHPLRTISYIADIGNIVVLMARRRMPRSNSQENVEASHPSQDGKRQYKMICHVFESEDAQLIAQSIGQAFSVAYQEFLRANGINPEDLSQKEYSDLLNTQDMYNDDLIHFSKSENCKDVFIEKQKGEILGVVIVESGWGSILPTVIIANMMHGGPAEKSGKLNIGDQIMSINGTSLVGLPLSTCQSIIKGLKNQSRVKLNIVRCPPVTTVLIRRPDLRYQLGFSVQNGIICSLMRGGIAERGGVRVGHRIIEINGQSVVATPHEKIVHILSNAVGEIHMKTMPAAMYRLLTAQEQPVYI
# DNA dC->dU-editing enzyme APOBEC-3A, sequence (P31941 whole entry): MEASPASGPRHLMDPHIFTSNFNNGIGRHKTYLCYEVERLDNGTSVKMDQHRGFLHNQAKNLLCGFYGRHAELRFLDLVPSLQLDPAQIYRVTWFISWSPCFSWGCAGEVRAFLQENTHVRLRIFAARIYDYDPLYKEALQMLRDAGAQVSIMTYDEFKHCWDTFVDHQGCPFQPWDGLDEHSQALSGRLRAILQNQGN
# Nonstructural protein 1, sequence (Q194T2 whole entry): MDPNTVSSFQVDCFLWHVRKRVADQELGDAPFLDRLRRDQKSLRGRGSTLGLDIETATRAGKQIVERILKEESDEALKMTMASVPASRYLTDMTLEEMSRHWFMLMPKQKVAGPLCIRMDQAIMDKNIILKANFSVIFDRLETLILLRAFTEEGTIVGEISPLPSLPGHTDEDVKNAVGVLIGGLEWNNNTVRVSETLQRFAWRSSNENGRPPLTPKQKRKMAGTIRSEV
structure (smiles),measurement,setting,value
S=C(Nc1ccccc1)c1ccccn1,IC50,Beta-galactosidase,> 66.6 µM (inactive)
same,EC50,[1],32.5 µM (active)
same,EC50,[2],32.8 µM (active)
CCCn1c(C)nc2c(NC3CCCCC3)nc(C)nc21,AC50,Cytochrome P450 3A4,12.6 µM (inconclusive)
O=[N+]([O-])c1ccc2oc(C3CCCCC3)nc2c1,EC50,[3],> 50 µM (active)
COc1ccc(C2C=C(c3ccc(Br)cc3)Nc3nc(NS(C)(=O)=O)nn32)cc1 (stereo unspecified),IC50,Bcl-2-like protein 10,> 1.56 µM (inactive)
c1ccc(C2[C@H]3CN(CC4CCCCC4)[C@H](c4ccccc4)C34CC2(c2ccccc2)C4)cc1 (stereo partly specified),AC50,Cytochrome P450 3A4,5.01 µM (inconclusive)
Cc1ccsc1-c1nnc(S)n1CC(C)C,IC50,[4],5.9 µM (active)
same,IC50,[5],> 100 µM (inactive)
COC(=O)[C@@H]1C[C@@H]2CC[C@@H](O)C[C@@H]2N1Cc1ccc(N2CCN(C)CC2)cc1,AC50,Cytochrome P450 3A4,10 µM (inconclusive)
CSC1=N/C(=C\C=C\c2cccs2)C(=O)S1,IC50,Nonstructural protein 1,69.4 µM (active)
same,AC50,[6],3.5 µM (active)
same,EC50,[7],0.853 µM (active)
N=c1c(S(=O)(=O)c2ccc(Br)cc2)cc2c(=O)n3ccccc3nc2n1Cc1ccco1,IC50,SUMO-activating enzyme [8],3.92 µM (active)
same,IC50,SUMO-activating enzyme [9],4.16 µM (active)
c1ccc2cc(-c3csnn3)ccc2c1,AC50,Cytochrome P450 2C9,14.1 µM (inconclusive)
same,AC50,[6],75.6 µM (active)
CCOc1ccc(NC(=O)c2ccc(NC(=O)c3ccc(CN4CCOCC4)cc3)cc2)cc1,IC50,SUMO-activating enzyme [8],22.4 µM (active)
same,IC50,[10],> 50 µM (inactive)
same,IC50,SUMO-activating enzyme [9],25.1 µM (active)
same,IC50,[11],10.1 µM (active)
CCOC(=O)c1ccc(NC(=O)CSc2nnc(CNc3ccc(OC)cc3)n2C)cc1,IC50,Estrogen receptor,> 50 µM (not active)
Cc1cccc(-c2nc(Nc3ccc(N4CCOCC4)cc3)c3ccccc3n2)c1,IC50,[12],> 54 µM (active)
same,EC50,[13],1.23 µM (active)
same,EC50,[14],> 60 µM (not active)
CCOC(=O)/C=C(\C)Sc1cc(=O)oc2ccccc12,IC50,[15],> 80 µM (inactive)
same,AC50,[6],8.71 µM (active)
same,AC50,HEK293,12 µM (active)
O=C1C=CC(=O)N1c1ccc(N2CCCCC2)cc1,AC50,[16],0.554 µM (active)
same,IC50,[4],7.13 µM (active)
same,IC50,[5],> 100 µM (inactive)
same,IC50,[10],3.07 µM (active)
same,IC50,[11],9.34 µM (active)
same,IC50,Beta-galactosidase,> 66.6 µM (inactive)
same,IC50,[17],> 80 µM (inactive)
Oc1ccc(-c2nc3ncccn3c2Nc2ccc3c(c2)OCCO3)cc1,EC50,[3],> 50 µM (active)
CCn1c2ccccc2c2cc(NC(=O)CSc3nnc(-c4ccc(OC)cc4)n3N)ccc21,IC50,Estrogen receptor,12.2 µM (active)
COc1cccc(N2CCN(C3=C(Cl)C(=O)N(c4cccc(OC)c4)C3=O)CC2)c1,IC50,[18],> 50 µM (inconclusive)
CC1CC(C(F)(F)C(F)(F)F)n2nc(C(=O)O)cc2N1 (stereo unspecified),IC50,Estrogen receptor,19.9 µM (active)
Cc1cccc(N/N=C/c2ccc(O)c(O)c2O)c1,IC50,Genome polyprotein,32.6 µM (active)
same,EC50,[3],> 50 µM (active)
same,AC50,[19],1.36 µM (active)
COc1cc(/C=N\Nc2nc(-c3ccc(C)cc3)c(NC(C)=O)s2)ccc1O,IC50,[12],3.02 µM (not active)
Cc1ccc(/C=N/n2c(S)nnc2-c2ccco2)s1,IC50,[4],1.55 µM (active)
same,IC50,[5],> 100 µM (inactive)
O=S1OCC2C(CO1)C1(Cl)C(Cl)=C(Cl)C2(Cl)C1(Cl)Cl (stereo unspecified) [ENDOSULFAN],AC50,Cytochrome P450 3A4,2.51 µM (inconclusive)
